Data taken from the supplement of paper PMC8612539.
In brackets after ≈: the same amount, converted by molar mass.

Legend:
Enterococcus spp. = test: minimum inhibitory concentration (MIC)
Description: (§1)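 Broth microdilution MIC (Sensititre BOPO7F bovine plate, CLSI methods) of 19 antimicrobials against field isolates of P. multocida, M. haemolytica, H. somni (deep nasopharyngeal swabs) and E. coli, Enterococcus spp. (rectal swabs) from weaned dairy heifers. Incubation 16-24 h at 35 C. MIC is the lowest concentration preventing visible growth. Values with <= or > lie at the tested range limits. Trimethoprim-sulfamethoxazole is given as the trimethoprim component of a 1:19 mixture.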

Histophilus somni = test: minimum inhibitory concentration (MIC)
Description: as §1

CC[C@H]1OC(=O)C[C@@H](O)[C@H](C)[C@@H](O[C@@H]2O[C@H](C)[C@@H](O)[C@H](N(C)C)[C@H]2O)[C@@H](CCN2CCCCC2)C[C@@H](C)C(=O)/C=C/C(C)=C/[C@@H]1CN1CCCCC1 [Tildipirosin]
minimum inhibitory concentration [µg/mL]
Conditions | Enterococcus spp. | Histophilus somni
isolate (source animal id): 2 | 8 (≈ 10.9 µM) | –
isolate (source animal id): 3 | – | ≤ 1
isolate (source animal id): 4 | – | 2 (≈ 2.72 µM)
isolate (source animal id): 7 | – | ≤ 1
isolate (source animal id): 14 | – | ≤ 1
isolate (source animal id): 15 | – | 4 (≈ 5.45 µM)
isolate (source animal id): 17 | – | ≤ 1
isolate (source animal id): 18 | – | ≤ 1
isolate (source animal id): 20 | – | ≤ 1
isolate (source animal id): 23 | – | 2 (≈ 2.72 µM)
isolate (source animal id): 35 | > 16 | –
isolate (source animal id): 42 | 8 (≈ 10.9 µM) | –
isolate (source animal id): 44 | 16 (≈ 21.8 µM) | –
isolate (source animal id): 45 | – | 4 (≈ 5.45 µM)
isolate (source animal id): 53 | – | 4 (≈ 5.45 µM)
isolate (source animal id): 79 | 16 (≈ 21.8 µM) | –
isolate (source animal id): 83 | – | 2 (≈ 2.72 µM)
isolate (source animal id): 88 | 8 (≈ 10.9 µM) | 2 (≈ 2.72 µM)
isolate (source animal id): 91 | 8 (≈ 10.9 µM) | –
isolate (source animal id): 92 | 16 (≈ 21.8 µM) | 4 (≈ 5.45 µM)
isolate (source animal id): 93 | – | ≤ 1
isolate (source animal id): 99 | – | 2 (≈ 2.72 µM)
isolate (source animal id): 100 | – | 4 (≈ 5.45 µM)
isolate (source animal id): 105 | – | ≤ 1
isolate (source animal id): 107 | – | 2 (≈ 2.72 µM)
isolate (source animal id): 108 | – | 4 (≈ 5.45 µM)
isolate (source animal id): 109 | – | 4 (≈ 5.45 µM)
isolate (source animal id): 111 | 8 (≈ 10.9 µM) | –
isolate (source animal id): 122 | > 16 | –
isolate (source animal id): 123 | 16 (≈ 21.8 µM) | –
isolate (source animal id): 133 | 8 (≈ 10.9 µM) | –
isolate (source animal id): 158 | > 16 | –
isolate (source animal id): 168 | > 16 | –
isolate (source animal id): 169 | 16 (≈ 21.8 µM) | –
isolate (source animal id): 171 | 16 (≈ 21.8 µM) | –
isolate (source animal id): 175 | > 16 | –
isolate (source animal id): 177 | > 16 | –
isolate (source animal id): 181 | 16 (≈ 21.8 µM) | –
isolate (source animal id): 182 | 16 (≈ 21.8 µM) | –
isolate (source animal id): 183 | 8 (≈ 10.9 µM) | –
isolate (source animal id): 187 | 16 (≈ 21.8 µM) | –
isolate (source animal id): 190 | 16 (≈ 21.8 µM) | –
isolate (source animal id): 194 | 16 (≈ 21.8 µM) | –
isolate (source animal id): 195 | 16 (≈ 21.8 µM) | –
isolate (source animal id): 197 | 16 (≈ 21.8 µM) | –
isolate (source animal id): 211 | 16 (≈ 21.8 µM) | –
isolate (source animal id): 214 | 16 (≈ 21.8 µM) | –
isolate (source animal id): 222 | 16 (≈ 21.8 µM) | –
isolate (source animal id): 223 | 8 (≈ 10.9 µM) | –
isolate (source animal id): 228 | > 16 | –
isolate (source animal id): 230 | > 16 | –
isolate (source animal id): 235 | > 16 | –
isolate (source animal id): 236 | 8 (≈ 10.9 µM) | –
isolate (source animal id): 239 | 8 (≈ 10.9 µM) | –
isolate (source animal id): 241 | > 16 | –
isolate (source animal id): 244 | 16 (≈ 21.8 µM) | –
isolate (source animal id): 246 | 16 (≈ 21.8 µM) | –
isolate (source animal id): 247 | > 16 | –
isolate (source animal id): 250 | 16 (≈ 21.8 µM) | –
isolate (source animal id): 252 | > 16 | –
isolate (source animal id): 268 | > 16 | –
isolate (source animal id): 282 | 8 (≈ 10.9 µM) | –
isolate (source animal id): 285 | > 16 | –
isolate (source animal id): 289 | 16 (≈ 21.8 µM) | –
isolate (source animal id): 290 | 16 (≈ 21.8 µM) | –
isolate (source animal id): 296 | 16 (≈ 21.8 µM) | –
isolate (source animal id): 298 | 8 (≈ 10.9 µM) | –
isolate (source animal id): 301 | 8 (≈ 10.9 µM) | –
isolate (source animal id): 310 | > 16 | –
isolate (source animal id): 320 | 8 (≈ 10.9 µM) | –
isolate (source animal id): 331 | 8 (≈ 10.9 µM) | –
isolate (source animal id): 333 | 16 (≈ 21.8 µM) | –
isolate (source animal id): 341 | > 16 | –
